Literature values as cited in patent US8324203B2, “Azadecalin glucocorticoid receptor modulators” (Corcept Therapeutics, Inc., priority 2004, dated 2012).

Tests used:
[1] = system: patients with Cushing's syndrome
GR = GR (Homo sapiens, UniProt P04150)
Sequence of GR (P04150 whole entry): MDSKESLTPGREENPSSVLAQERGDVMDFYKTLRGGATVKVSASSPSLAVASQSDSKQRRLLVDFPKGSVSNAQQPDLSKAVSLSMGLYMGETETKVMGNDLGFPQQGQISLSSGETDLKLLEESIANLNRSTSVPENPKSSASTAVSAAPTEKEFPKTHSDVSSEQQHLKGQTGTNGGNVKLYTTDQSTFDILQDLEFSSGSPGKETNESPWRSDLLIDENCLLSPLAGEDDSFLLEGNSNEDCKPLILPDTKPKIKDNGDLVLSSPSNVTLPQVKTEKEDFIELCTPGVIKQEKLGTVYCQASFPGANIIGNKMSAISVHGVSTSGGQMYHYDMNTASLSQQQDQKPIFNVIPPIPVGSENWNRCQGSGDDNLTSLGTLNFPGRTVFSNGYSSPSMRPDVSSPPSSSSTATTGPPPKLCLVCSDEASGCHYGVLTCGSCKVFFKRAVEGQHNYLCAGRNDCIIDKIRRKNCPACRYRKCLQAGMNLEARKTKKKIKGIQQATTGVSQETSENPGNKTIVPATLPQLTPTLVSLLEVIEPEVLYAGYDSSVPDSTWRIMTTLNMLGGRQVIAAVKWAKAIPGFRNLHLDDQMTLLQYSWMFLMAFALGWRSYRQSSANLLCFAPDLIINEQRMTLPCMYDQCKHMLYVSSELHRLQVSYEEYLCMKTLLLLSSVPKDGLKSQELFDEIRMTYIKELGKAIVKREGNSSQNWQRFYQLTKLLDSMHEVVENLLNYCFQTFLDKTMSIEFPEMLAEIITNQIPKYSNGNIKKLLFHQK

In the case of `CC#C[C@]1(O)CC[C@H]2[C@@H]3CCC4=CC(=O)CCC4=C3[C@@H](c3ccc(N(C)C)cc3)C[C@@]21C` [mifepristone], the “effect on acute psychosis” value ([1]; 400 to 800 mg per day, severe Cushing Syndrome due to adrenal cancers and ectopic secretion of ACTH from lung cancer) is given as “useful in rapidly reversing acute psychosis”, the “effect on patients' conditions, including psychiatric status” value ([1]; Cushing's syndrome patients) is given as “improved the patients' conditions” and the “anti-glucocorticoid activity in humans” value (GR) is given as “effective anti-glucocorticoid agent in humans”.
